Tests used:
[1] = test system: de novo hepatic cholesterol synthesis; test: Acute rat cholesterol synthesis assay (de novo hepatic cholesterol synthesis from exogenously administered 14C-acetate); assay type: in vivo; settings: female rats, dose and route not stated
Protocol: (b) Acute rat cholesterol synthesis assay.
This is an acute in vivo test in the rat to measure de novo hepatic cholesterol synthesis from exogenously administered ^14 C-acetate.
Female rats (35-55 g) are housed in reverse lighting conditions (red light from 0200 h-1400 h) for a period of about 2 weeks prior to test. Animals are allowed free access to chow and drinking water throughout this period. At test, animals should weigh 125-150 g.
Test compounds may be administered by oral gavage, dissolved or suspended in 0.5% polysorbate, or by ip or iv dosing. Control animals receive vehicle alone. After 1 hour the rats are injected ip with 25 μCi [2-^14 C]-acetate (NEN DUPONT. specific activity, 45-60 mCi/mmol NEC-085H, or AMERSHAM specific activity, 50-60 mCi/mmol CFA 14) in a volume of 0.25 ml saline (100 μCi/ml). After a further hour, rats are terminally anaesthetised with halothane and a blood sample obtained from the abdominal vena cava.
1 ml of plasma is lyophilised and then saponified in 2 ml ethanolic KOH (1 part 33% KOH, 9 parts ethanol) at 75° C. for 2 hours. After addition of an equal quantity of water, non-saponifiable lipids are extracted with two 5 ml volumes of hexane. The hexane extracts are evaporated to dryness and the residues dissolved in ethanol to determine cholesterol specific radioactivity. ED50 values can be determined in the standard way.

Squalene synthase = test: Inhibition of squalene synthase (squalene formation from tritiated farnesyl pyrophosphate, rat liver microsomal protein); assay type: biochemical; settings: 2.5 μM, substrate 20 μM, 15 minutes, 37° C.
Protocol: (a) Inhibition of Squalene synthase
In this test, the ability of a compound to prevent the formation of squalene from a radioactive substrate (tritiated farnesyl pyrophosphate) is assessed.
The test compound is incubated at a concentration of 25 micromolar in 200 μl of a buffered solution containing potassium phosphate (50 mM), MgCl2 (4.95 mM), KF (9.9 mM), NADPH (0.9 mM) and rat liver microsomal protein (20 μg). Rat liver microsomes are prepared by the method described in published European Patent Application No. 324,421 and stored in liquid nitrogen prior to assay. Assay vials are kept at 37° C. throughout the incubation.
The reaction is started with the addition of the substrate (1-[^3 H]-farnesyl pyrophosphate), final concentration 20 μM, and stopped after 15 minutes reaction time with the addition of 50 μl of 4% KOH. The reaction products are separated from unreacted substrate after application to a C-18 octadecyl 1 ccBond column (Analytichem Int product No. 617101). An aqueous fraction is eluted with 250 μl of 0.1M KOH. Squalene is then eluted with 1.0 ml 10% ethylacetate in hexane and radioactivity determined. The difference in radioactivity in the presence and absence of the test compound is used to determine the level of inhibition. […] The IC50 can then be determined from a plot of percentage inhibition against concentration of test compound.

CCCCOc1ccc(C#CC2(O)CN3CCC2CC3)cn1 (centres unmarked) [Example 1, 3-[2-(6-butoxy-3-pyridyl)ethynyl]quinuclidin-3-ol]
decrease in the rate of cholesterol biosynthesis [1]: 71%
inhibition (squalene synthase) (Squalene synthase): about 99%
